How the values were obtained:
CYP3A4 = assay: CYP3A4 metabolism half-life (t1/2); settings: human
[1] = biological target: T1, 5-hydroxytryptamine receptor 1A (Homo sapiens, UniProt P08908); assay: In vitro binding affinity against 5-hydroxytryptamine 1A receptor using [3H]8-OH-DPAT in human CYP3A4 assay
T1 sequence (P08908 whole entry): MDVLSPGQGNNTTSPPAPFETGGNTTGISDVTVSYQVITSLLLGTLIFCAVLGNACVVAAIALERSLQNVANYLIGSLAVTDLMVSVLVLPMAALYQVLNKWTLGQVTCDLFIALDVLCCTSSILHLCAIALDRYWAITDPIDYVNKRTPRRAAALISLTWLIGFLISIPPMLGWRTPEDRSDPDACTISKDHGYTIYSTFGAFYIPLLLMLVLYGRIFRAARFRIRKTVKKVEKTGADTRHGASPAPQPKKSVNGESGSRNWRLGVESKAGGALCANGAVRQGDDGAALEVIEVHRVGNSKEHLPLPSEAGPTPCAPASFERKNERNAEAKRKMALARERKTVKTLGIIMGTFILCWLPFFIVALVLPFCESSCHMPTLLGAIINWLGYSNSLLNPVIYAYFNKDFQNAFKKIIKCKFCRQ

Structure (SMILES)	half-life (CYP3A4)	IC50 [1]
CC1(C)CC(=O)N(CCCCN2CCN(c3ncccn3)CC2)C(=O)C1 [GEPIRONE]	30.3 min	–
O=C1c2ccccc2C(=O)N1CCCCN1CCN(c2ncccn2)CC1	26.8 min	60 nM
O=C1CC2(CCCC2)CC(=O)N1CCCCN1CCN(c2cnccn2)CC1	5.5 min	460 nM
CC(CCCN1C(=O)CC(C)(C)CC1=O)N1CCN(c2ncc(F)cn2)CC1 (stereo unspecified)	40.1 min	87 nM
CC(CCCN1C(=O)c2ccccc2C1=O)N1CCN(c2ncc(F)cn2)CC1 (stereo unspecified)	18.2 min	210 nM
CC(O)(CCN1C(=O)CC2(CCCC2)CC1=O)CN1CCN(c2ncccn2)CC1 (stereo unspecified)	8.6 min	1460 nM
O=C1CC2(CCCC2)CC(=O)N1CCCCN1CCN(c2ccccc2)CC1	8 min	15 nM
CC(CCCN1C(=O)CC2(CCCC2)CC1=O)N1CCN(c2ncccn2)CC1 (stereo unspecified)	3.8 min	4 nM
CC(CCCN1C(=O)CC2(CCCC2)CC1=O)N1CCN(c2ncc(F)cn2)CC1 (stereo unspecified)	14.8 min	46 nM
O=C1CC2(CCCC2)CC(=O)N1CCC(O)CN1CCN(c2ccc(F)cc2)CC1 (stereo unspecified)	3.8 min	69 nM
O=C1CC2(CCCC2)CC(=O)N1CCCCN1CCN(c2ncc(F)cn2)CC1	52.3 min	63 nM
COc1ccccc1N1CCN(CCCCN2C(=O)CC3(CCCC3)CC2=O)CC1	5.1 min	2 nM
O=C1c2ccccc2C(=O)N1CCCCN1CCN(c2ncc(F)cn2)CC1	20.4 min	440 nM
COc1ccccc1N1CCN(CC(O)CCN2C(=O)CC3(CCCC3)CC2=O)CC1 (stereo unspecified)	7.8 min	12 nM
CC1(C)CC(=O)N(CCCCN2CCN(c3ncc(F)cn3)CC2)C(=O)C1	78.3 min	205 nM
O=C1CC2(CCCC2)CC(=O)N1CCC(O)CN1CCN(c2ncccn2)CC1 (stereo unspecified)	10.2 min	840 nM
CC(C)(CCN1C(=O)CC2(CCCC2)CC1=O)CN1CCN(c2ncccn2)CC1	2.9 min	710 nM
O=C1CC2(CCCC2)CC(=O)N1CCCCN1CCN(c2ccc(F)cc2)CC1	3.2 min	64 nM
COc1ccc(N2CCN(CCCCN3C(=O)CC4(CCCC4)CC3=O)CC2)cc1	21.1 min	930 nM
O=C1CC2(CCCC2)CC(=O)N1CCC(O)CN1CCN(c2cnccn2)CC1 (stereo unspecified)	9.6 min	> 1000 nM
CC(CCCN1C(=O)CC2(CCCC2)CC1=O)N1CCN(c2ccc(F)cc2)CC1 (stereo unspecified)	2.4 min	99 nM

Reference: ChEMBL document CHEMBL1148245 (Bioorg Med Chem Lett, 2004)
